Source: ChEMBL document CHEMBL4808232, “Discovery of IDO1 inhibitors containing a decahydroquinoline, decahydro-1,6-naphthyridine, or octahydro-1H-pyrrolo[3,2-c]pyridine scaffold” (Bioorg Med Chem Lett, 2021)

What was measured:
[1] = MRT in male Wistar Han rat at 0.05 mg/kg, iv; assay type: ADME, organism-based; conditions: male, Wistar Han, in vivo, read-out: MRT
[2] = Clearance in male Wistar Han rats at 0.05 mg/kg, iv; assay type: ADME, organism-based; conditions: rat, in vivo
[3] = MRT in Beagle dog at 0.05 mg/kg, iv; assay type: ADME, organism-based, Canis lupus familiaris; conditions: in vivo
[4] = target: T1, Indoleamine 2,3-dioxygenase 1 (Homo sapiens, UniProt P14902); experiment: Inhibition of IDO1 in human whole blood assessed as unbound concentration; assay type: tissue-based
[5] = Clearance in Beagle dog at 0.05 mg/kg, iv; assay type: ADME, organism-based, Canis lupus familiaris; conditions: in vivo
[6] = Unbound clearance in Beagle dog at 0.05 mg/kg, iv; assay type: ADME, organism-based, Canis lupus familiaris; conditions: in vivo
[7] = Unbound clearance in male Wistar Han rat at 0.05 mg/kg, iv; assay type: ADME, organism-based; conditions: in vivo
[8] = target: T1, Indoleamine 2,3-dioxygenase 1; experiment: Inhibition of IDO1 in human whole blood; assay type: tissue-based
[9] = target: T1, Indoleamine 2,3-dioxygenase 1; experiment: Inhibition of IDO1 in human HeLa cells assessed as production of N-formylkynurenine using tryptophan as substrate in presence of inactivated fetal bovine serum; assay type: cell-based

T1 sequence (P14902 whole entry): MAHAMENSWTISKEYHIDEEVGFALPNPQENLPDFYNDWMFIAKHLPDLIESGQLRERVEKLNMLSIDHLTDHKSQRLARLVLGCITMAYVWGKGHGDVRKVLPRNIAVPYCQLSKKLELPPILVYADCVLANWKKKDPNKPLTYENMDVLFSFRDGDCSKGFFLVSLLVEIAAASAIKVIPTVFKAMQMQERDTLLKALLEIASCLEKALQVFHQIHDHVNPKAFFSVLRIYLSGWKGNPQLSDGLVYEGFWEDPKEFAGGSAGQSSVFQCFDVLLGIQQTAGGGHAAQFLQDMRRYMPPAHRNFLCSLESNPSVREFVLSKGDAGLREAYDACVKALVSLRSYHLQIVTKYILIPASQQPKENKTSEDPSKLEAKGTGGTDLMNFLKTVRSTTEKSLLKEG

MRT [1]: 2.9 h
clearance [2]: 22 mL/min/kg
MRT [3]: 8.1 h
IC50 [4]: 0.73 nM
clearance [5]: 9 mL/min/kg
CL free [6]: 727 mL/min/kg
CL free [7]: 1613 mL/min/kg
IC50 [8]: 43 nM
IC50 [9]: 1.9 nM
Structure (SMILES): CC(C(=O)Nc1ccc(Cl)cc1)N1CCC2C(CCCN2C(=O)OC2CC2)C1 (stereo in doubt; 27)
